# Like-named read-outs stand apart in the source and are kept apart here.
# Tests used:
# E. coli ATCC 43888 = assay: microbe, parasite or virus in culture; settings: for Bacterial MIC: E. coli 43888; for MIC: Escherichia coli
# Procedure, shortened: (§1)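 Broth microdilution MIC in cation-adjusted Mueller-Hinton broth, final inoculum 1 × 10⁵ CFU/mL. Peptides in 0.02% TFA + 0.04% BSA, 2-fold series 0.25 to 128 μg/mL, duplicate, 37 °C for 20 h without agitation. Growth imaged; MIC read visually per CLSI.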
# E. cloacae ATCC 13047 = assay: microbe, parasite or virus in culture; settings: for Bacterial MIC: E. cloacae 13047; for MIC: Enterobacter cloacae
# Procedure, shortened: as §1
# A. baumannii ATCC 17978 = assay: microbe, parasite or virus in culture; settings: for Bacterial MIC: A. baumannii 17978; for MIC: Acinetobacter baumannii
# Procedure, shortened: as §1
# E. cloacae ATCC 35549 = assay: microbe, parasite or virus in culture; settings: for Bacterial MIC: E. cloacae 35549; for MIC: Enterobacter cloacae
# Procedure, shortened: as §1
# K. pneumoniae 4640 [1] = assay: microbe, parasite or virus in culture
# A. baumannii 5075 [2] = assay: microbe, parasite or virus in culture
# [3] = design: method as in Biomatik (vendor); settings: 1.0 mg peptide in 1.0 ml solvent; peptides synthesized by Biomatik; ref Biomatik (vendor); cited from earlier work
# K. pneumoniae 4640 [4] = settings: K. pneumoniae 4640
# [5] = system: Batrachochytrium dendrobatidis Bd-GPL strain JEL404; settings: slope of growth, positive = inhibition, negative = no inhibition
# A. baumannii 5075 [6] = system: A. baumannii 5075
# [7] = CAMHB, 1 × 10⁵ CFU/mL, 0.25 to 128 μg/mL, 37 °C 20 h, duplicate, read visually (CLSI)
smiles,measurement,setting,value
"C[C@H]1COc2c(N3CCN(C)CC3)c(F)cc3c(=O)c(C(=O)O)cn1c23 [Levofloxacin, reference compound]",Bacterial MIC,E. coli ATCC 43888; Historical run 15NOV23,<= 0.250 µg/mL
same,Bacterial MIC,E. coli ATCC 43888; Historical run 19APRIL23,<= 0.250 µg/mL
same,Bacterial MIC,E. coli ATCC 43888; Historical run 22NOV23,<= 0.250 µg/mL
same,Bacterial MIC,E. coli ATCC 43888; Week 2 (12/14/2023),<= 0.250 µg/mL
same,MIC,"E. coli ATCC 43888; ATCC43888, 20 h",0.25 µg/mL
same,MIC,"E. coli ATCC 43888; ATCC43888, read-out: Bacterial MIC",≤ 0.25 µg/mL
same,Bacterial MIC,E. cloacae ATCC 13047; Historical run 15NOV23,<= 0.250 µg/mL
same,Bacterial MIC,E. cloacae ATCC 13047; Historical run 19APRIL23,<= 0.250 µg/mL
same,Bacterial MIC,E. cloacae ATCC 13047; Historical run 22NOV23,<= 0.250 µg/mL
same,Bacterial MIC,E. cloacae ATCC 13047; Week 2 (12/14/2023),<= 0.250 µg/mL
same,MIC,"E. cloacae ATCC 13047; ATCC13047, 20 h",0.25 µg/mL
same,MIC,"E. cloacae ATCC 13047; ATCC13047, read-out: Bacterial MIC",≤ 0.25 µg/mL
same,Bacterial MIC,A. baumannii ATCC 17978; Historical run 15NOV23,<= 0.250 µg/mL
same,Bacterial MIC,A. baumannii ATCC 17978; Historical run 19APRIL23,<= 0.250 µg/mL
same,Bacterial MIC,A. baumannii ATCC 17978; Historical run 22NOV23,<= 0.250 µg/mL
same,Bacterial MIC,A. baumannii ATCC 17978; Week 2 (12/14/2023),<= 0.250 µg/mL
same,MIC,"A. baumannii ATCC 17978; ATCC17978, 20 h",0.25 µg/mL
same,MIC,"A. baumannii ATCC 17978; ATCC17978, read-out: Bacterial MIC",≤ 0.25 µg/mL
same,Bacterial MIC,E. cloacae ATCC 35549; Historical run 15NOV23,<= 0.250 µg/mL
same,Bacterial MIC,E. cloacae ATCC 35549; Historical run 19APRIL23,<= 0.250 µg/mL
same,Bacterial MIC,E. cloacae ATCC 35549; Historical run 22NOV23,<= 0.250 µg/mL
same,Bacterial MIC,E. cloacae ATCC 35549; Week 2 (12/14/2023),<= 0.250 µg/mL
same,MIC,"E. cloacae ATCC 35549; ATCC35549, 20 h",0.25 µg/mL
same,MIC,"E. cloacae ATCC 35549; ATCC35549, read-out: Bacterial MIC",≤ 0.25 µg/mL
same,MIC,"K. pneumoniae 4640 [1]; Klebsiella pneumoniae, 4640, 20 h, K. pneumoniae 4640, CAMHB, 1 × 10⁵ CFU/mL, 0.25 to 128 μg/mL, 37 °C 20 h, duplicate, read visually (CLSI)",32 µg/mL
same,MIC,"K. pneumoniae 4640 [1]; Klebsiella pneumoniae, 4640, read-out: Bacterial MIC, K. pneumoniae 4640, Historical run 15NOV23",32 to 64 µg/mL
same,MIC,"K. pneumoniae 4640 [1]; Klebsiella pneumoniae, 4640, read-out: Bacterial MIC, K. pneumoniae 4640, Historical run 19APRIL23",64 µg/mL
same,MIC,"K. pneumoniae 4640 [1]; Klebsiella pneumoniae, 4640, read-out: Bacterial MIC, K. pneumoniae 4640, Historical run 22NOV23",32 µg/mL
same,MIC,"K. pneumoniae 4640 [1]; Klebsiella pneumoniae, 4640, read-out: Bacterial MIC, K. pneumoniae 4640, Week 1 (12/6/2023)",32 µg/mL
same,MIC,"K. pneumoniae 4640 [1]; Klebsiella pneumoniae, 4640, read-out: Bacterial MIC, K. pneumoniae 4640, Week 2 (12/14/2023)",32 µg/mL
same,MIC,"A. baumannii 5075 [2]; Acinetobacter baumannii, 5075, 20 h, A. baumannii 5075, CAMHB, 1 × 10⁵ CFU/mL, 0.25 to 128 μg/mL, 37 °C 20 h, duplicate, read visually (CLSI)",4 µg/mL
same,MIC,"A. baumannii 5075 [2]; Acinetobacter baumannii, 5075, read-out: Bacterial MIC, A. baumannii 5075, Historical run 15NOV23",8 µg/mL
same,MIC,"A. baumannii 5075 [2]; Acinetobacter baumannii, 5075, read-out: Bacterial MIC, A. baumannii 5075, Historical run 19APRIL23",4 µg/mL
same,MIC,"A. baumannii 5075 [2]; Acinetobacter baumannii, 5075, read-out: Bacterial MIC, A. baumannii 5075, Historical run 22NOV23",4 µg/mL
same,MIC,"A. baumannii 5075 [2]; Acinetobacter baumannii, 5075, read-out: Bacterial MIC, A. baumannii 5075, Week 1 (12/6/2023)",4 µg/mL
same,MIC,"A. baumannii 5075 [2]; Acinetobacter baumannii, 5075, read-out: Bacterial MIC, A. baumannii 5075, Week 2 (12/14/2023)",4 µg/mL
"CC[C@H](C)[C@H](NC(=O)[C@H](CCCCN)NC(=O)[C@H](CCC(=O)O)NC(=O)[C@H](CCCCN)NC(=O)[C@H](CO)NC(=O)[C@H](CCCCN)NC(=O)[C@H](CCCNC(=N)N)NC(=O)[C@H](Cc1ccccc1)NC(=O)[C@H](Cc1ccccc1)NC(=O)[C@H](CC(=O)O)NC(=O)CNC(=O)[C@H](CC(C)C)NC(=O)[C@@H](N)CC(C)C)C(=O)NCC(=O)N[C@@H](CCCCN)C(=O)N[C@@H](CCC(=O)O)C(=O)N[C@@H](Cc1ccccc1)C(=O)N[C@@H](CCCCN)C(=O)N[C@@H](CCCNC(=N)N)C(=O)N[C@H](C(=O)N[C@H](C(=O)N[C@@H](CCC(N)=O)C(=O)N[C@@H](CCCNC(=N)N)C(=O)N[C@H](C(=O)N[C@@H](CCCCN)C(=O)N[C@@H](CC(=O)O)C(=O)N[C@@H](Cc1ccccc1)C(=O)N[C@@H](CC(C)C)C(=O)N[C@@H](CCCNC(=N)N)C(=O)N[C@@H](CC(N)=O)C(=O)N[C@@H](CC(C)C)C(=O)N[C@H](C(=O)N1CCC[C@H]1C(=O)N[C@@H](CCCNC(=N)N)C(=O)N[C@H](C(=O)N[C@@H](CCC(=O)O)C(=O)N[C@@H](CO)C(=O)O)[C@@H](C)O)C(C)C)[C@@H](C)CC)C(C)C)[C@@H](C)CC [LL-37, reference compound]",Suggest solvent (solubility),[3],1.0mg peptide soluble in 1.0ml (H2O:Acetonitrile=3:1)
same,MIC,K. pneumoniae 4640 [4]; [7],64 µg/mL
same,Bacterial MIC,K. pneumoniae 4640 [4]; Week 1 (12/6/2023),64 µg/mL
same,Bacterial MIC,K. pneumoniae 4640 [4]; Week 2 (12/14/2023),64 µg/mL
same,"Bd inhibition score (percent inhibition), mean",[5]; synthesized peptide 15.625 μg/mL,-44.2834%
same,"Bd inhibition score (percent inhibition), mean",[5]; synthesized peptide 31.25 μg/mL,-68.3967%
same,"Bd inhibition score (percent inhibition), mean",[5]; synthesized peptide 62.5 μg/mL,-39.8112%
same,"Bd inhibition score (percent inhibition), mean",[5]; synthesized peptide 125 μg/mL,-55.6571%
same,"Bd inhibition score (percent inhibition), mean",[5]; synthesized peptide 250 μg/mL,-81.8611%
same,"Bd inhibition score (percent inhibition), mean",[5]; synthesized peptide 500 μg/mL,-318.384%
same,MIC,A. baumannii 5075 [6]; [7],4 µg/mL
same,Bacterial MIC,A. baumannii 5075 [6]; Week 1 (12/6/2023),4 µg/mL
same,Bacterial MIC,A. baumannii 5075 [6]; Week 2 (12/14/2023),4 µg/mL

# — publication PMC12635268, “Novel antimicrobial peptides and peptide-microbiome crosstalk in Appalachian salamander skin” (NPJ Biofilms and Microbiomes, 2025)
